From the NIST ThermoML archive (doi:10.1016/j.tca.2013.03.008)
Values joined by “and” are separate entries in the source; they are usually repeats but may differ in a detail not shown here. Equal values may be shown once. Numbers after ± are expanded uncertainties.

Tests used:
[1] = 101 kPa, Liquid; for viscosity: Capillary tube (Ostwald / Ubbelohde) method; for mass density: Vibrating tube method
[2] = xn = mol fraction of the nth substance listed; conditions: 101 kPa, Liquid; for viscosity: Capillary tube (Ostwald / Ubbelohde) method; for mass density: Vibrating tube method

| Compound | viscosity ([1]; 298.15 K) [mPa·s] | mass density ([1]; 298.15 K) [kg/m3] | viscosity ([1]; 308.15 K) | mass density ([1]; 308.15 K) [kg/m3] | viscosity ([1]; 318.15 K) | mass density ([1]; 318.15 K) [kg/m3] | viscosity ([2]; 298.15 K, x1 = 1) [mPa·s] | mass density ([2]; 298.15 K, x1 = 1) [kg/m3] | viscosity ([2]; 308.15 K, x1 = 1) [mPa·s] | mass density ([2]; 308.15 K, x1 = 1) [kg/m3] | viscosity ([2]; 318.15 K, x1 = 1) [mPa·s] | mass density ([2]; 318.15 K, x1 = 1) [kg/m3] | further results |
| --- | --- | --- | --- | --- | --- | --- | --- | --- | --- | --- | --- | --- | --- |
| CCC(C)O (stereo unspecified) [butan-2-ol] | 2.998 ± 0.031 | 802.62 ± 0.31 | 2.17 ± 0.025 mPa·s | 794.13 ± 0.31 | 1.476 ± 0.019 mPa·s | 785.22 ± 0.31 | – | – | – | – | – | – | – |
| CCC(C)O (stereo unspecified) [butan-2-ol] + CCC(=O)CC | – | – | – | – | – | – | – | – | – | – | – | – | viscosity ([2]; 298.15 K, x2 = 0): 2.998 ± 0.031 mPa·s; mass density ([2]; 298.15 K, x2 = 0): 802.62 ± 0.31 kg/m3; viscosity ([2]; 308.15 K, x2 = 0): 2.17 ± 0.025 mPa·s; mass density ([2]; 308.15 K, x2 = 0): 794.13 ± 0.31 kg/m3; viscosity ([2]; 318.15 K, x2 = 0): 1.476 ± 0.019 mPa·s; mass density ([2]; 318.15 K, x2 = 0): 785.22 ± 0.31 kg/m3 |
| CCC(C)O (stereo unspecified) [butan-2-ol] + CCOC(=O)CCl | – | – | – | – | – | – | 2.998 ± 0.031 | 802.62 ± 0.31 | 2.17 ± 0.025 | 794.13 ± 0.31 | 1.476 ± 0.019 | 785.22 ± 0.31 | – |
| CCOC(=O)CCl [ethyl chloroethanoate] | 1.095 ± 0.011 | 1144.11 ± 0.45 | 0.934 ± 0.009 mPa·s and 0.939 ± 0.009 mPa·s | 1131.46 ± 0.44 | 0.816 ± 0.008 mPa·s and 0.815 ± 0.008 mPa·s | 1118.74 ± 0.42 | – | – | – | – | – | – | – |
| CCC(=O)CC [pentan-3-one] | 0.442 ± 0.005 | 809.38 ± 0.31 | 0.398 ± 0.004 mPa·s | 799.55 ± 0.31 | 0.362 ± 0.004 mPa·s | 789.63 ± 0.31 | – | – | – | – | – | – | – |
| CCC(=O)CC [pentan-3-one] + CCOC(=O)CCl | – | – | – | – | – | – | 0.442 ± 0.005 | 809.38 ± 0.31 | 0.398 ± 0.004 | 799.55 ± 0.31 | 0.362 ± 0.004 | 789.63 ± 0.31 | – |
